Laboratory results reported in ChEMBL document CHEMBL3580557, “Anti-inflammatory Terpenoids from the Leaves and Twigs of Dysoxylum gotadhora” (J Nat Prod, 2015).

Legend:
RAW264.7 [1] = test: Cytotoxicity against mouse RAW264.7 cells assessed as cell viability after 16 hrs by MTT assay; type: cell-based; conditions: raw264.7, 16 h
RAW264.7 [2] = test: Antiinflammatory activity in mouse RAW264.7 cells assessed as inhibition of LPS-induced nitric oxide production at 12.5 uM after 24 hrs by Griess assay relative to control; type: functional; conditions: RAW264.7, 24 h
RAW264.7 [3] = test: Antiinflammatory activity in mouse RAW264.7 cells assessed as inhibition of LPS-induced nitric oxide production after 24 hrs by Griess assay; type: functional, cell-based; conditions: RAW264.7, 24 h
RAW264.7 [4] = test: Antiinflammatory activity in mouse RAW264.7 cells assessed as inhibition of LPS-induced nitric oxide production at 3.1 uM after 24 hrs by Griess assay relative to control; type: functional; conditions: RAW264.7, 24 h
RAW264.7 [5] = test: Antiinflammatory activity in mouse RAW264.7 cells assessed as inhibition of LPS-induced nitric oxide production at 25 uM after 24 hrs by Griess assay relative to control; type: functional; conditions: RAW264.7, 24 h
RAW264.7 [6] = test: Antiinflammatory activity in mouse RAW264.7 cells assessed as inhibition of LPS-induced nitric oxide production at 50 uM after 24 hrs by Griess assay relative to control; type: functional; conditions: RAW264.7, 24 h
RAW264.7 [7] = test: Antiinflammatory activity in mouse RAW264.7 cells assessed as inhibition of LPS-induced nitric oxide production at 6.3 uM after 24 hrs by Griess assay relative to control; type: functional; conditions: RAW264.7, 24 h

Row | IC50 (RAW264.7 [3]) [µM] | Compound | Activity (RAW264.7 [1]) | inhibition at 12.5 µM (RAW264.7 [2]) [%] | inhibition at 3.1 µM (RAW264.7 [4]) [%] | inhibition at 25 µM (RAW264.7 [5]) [%] | inhibition at 50 µM (RAW264.7 [6]) [%] | inhibition at 6.3 µM (RAW264.7 [7]) [%]
1 | 41.5 | CC1(C)OC[C@@H]([C@H]2CC[C@@]3(C)[C@@H]4CC[C@H]5C(C)(C)C(=O)CC[C@@]56C[C@@]46CC[C@]23C)C[C@@H](O)[C@@H]1O | Non-toxic | 13.5 | 11.3 | 28.3 | 58.9 | 4.5
2 |  | COc1ccc2c(c1)c(CC(=O)O)c(C)n2C(=O)c1ccc(Cl)cc1 [INDOMETHACIN] |  | 38.5 | 21.5 | 44.3 | 57.9 | 24.5
3 | 27.4 | C[C@H](C[C@@H](O)[C@H](O)C(C)(C)O)[C@H]1CC[C@@]2(C)[C@@H]3CC[C@H]4C(C)(C)C(=O)CC[C@@]45C[C@@]35CC[C@]12C | Non-toxic | 23.8 | 12.8 | 48.5 | 79.1 | 17.9
4 | 45.2 | COC(=O)/C=C(\C)CC[C@@]1(C)[C@H](C)CC[C@@]2(C)C(C)=CC(=O)C[C@H]12 | Non-toxic | 24.8 | 19.4 | 35.3 | 56.6 | 19.9
5 | 14.5 | C=C[C@@]1(C)CC(=O)[C@H]2[C@@H](CC[C@H]3C(C)(C)[C@@H](O)CC[C@]23C)C1 | Non-toxic | 41.5 | 19.8 | 63.8 | 92.4 | 25.6
6 | 25.5 | CC(C)(O)[C@H]1OC[C@@H]([C@H]2CC[C@@]3(C)[C@@H]4CC[C@H]5C(C)(C)C(=O)CC[C@@]56C[C@@]46CC[C@]23C)C[C@@H]1O | Non-toxic | 23.2 | 12.5 | 49 | 76.2 | 18.5
